Assay results as given in ChEMBL document CHEMBL1201862, “PubChem BioAssay data set” (2004).
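Grown in 96-well plates, cells were treated for 48 hours with each compound at five concentrations. Insufficient inhibition: endpoint recorded as highest concentration tested. At the GI50, growth is halved.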 Activity calls are given as the source filed them. No stated cut-off is given here; in the data, active = GI50 up to about 1.1 µM and inactive = higher.

Key:
Assay in all cases: NCI tumour cell line growth inhibition, 48 h
[1] = system: HOP-62
[2] = system: HOP-92
[3] = system: LOX IMVI
[4] = system: RXF 393
[5] = system: SF-539
[6] = system: SF-295
[7] = system: M19-MEL
[8] = system: OVCAR-4
[9] = system: RPMI-8226
[10] = system: U-251
[11] = system: LXFL 529
[12] = system: SF-268
[13] = system: SR
[14] = system: HL-60
[15] = system: COLO 205
[16] = system: OVCAR-3
[17] = system: XF498
[18] = system: Malme-3M
[19] = system: DLD-1
[20] = system: NCI-H460
[21] = system: A498
[22] = system: CCRF-CEM
[23] = system: SK-OV-3
[24] = system: HT-29
[25] = system: HCT-15
[26] = system: NCI-H522
[27] = system: HCC 2998
[28] = system: KM-20L2
[29] = system: EKVX
[30] = system: OVCAR-5
[31] = system: TK-10
[32] = system: IGROV-1
[33] = system: 786-0
[34] = system: ACHN
[35] = system: KM12
[36] = system: NCI-H226
[37] = system: M14
[38] = system: UO-31
[39] = system: SN12C
[40] = system: HCT-116
[41] = system: SK-MEL-2
[42] = system: SW-620
[43] = system: NCI-H23
[44] = system: SK-MEL-28
[45] = system: OVCAR-8
[46] = system: UACC-257
[47] = system: A549
[48] = system: DMS-114
[49] = system: MOLT-4
[50] = system: DMS-273
[51] = system: UACC-62
[52] = system: SNB-19
[53] = system: K562
[54] = system: SNB-75
[55] = system: SK-MEL-5
[56] = system: CAKI-1
[57] = system: HOP-18

Measured: GI50

CN1N=C2c3ccccc3CC[C@H]2C1c1cccc(O)c1 (stereo partly specified)
inactive: [1] > 100 µM | [2] > 100 µM | [3] > 100 µM | [4] 77.4 µM | [5] > 100 µM | [6] > 100 µM | [7] > 100 µM | [8] 75.9 µM | [9] > 100 µM | [10] > 100 µM | [11] 99.5 µM | [12] > 100 µM | [13] > 100 µM | [14] > 100 µM | [15] > 100 µM | [16] > 100 µM | [17] > 100 µM | [19] > 100 µM | [20] 81.1 µM | [21] > 100 µM | [22] > 100 µM | [23] > 100 µM | [24] 55.1 µM | [26] > 100 µM | [27] > 100 µM | [28] > 100 µM | [29] > 100 µM | [30] > 100 µM | [31] > 100 µM | [32] > 100 µM | [33] > 100 µM | [34] > 100 µM | [35] > 100 µM | [36] > 100 µM | [37] > 100 µM | [38] 32.4 µM | [39] > 100 µM | [40] 3.05 µM | [41] > 100 µM | [42] > 100 µM | [43] > 100 µM | [44] > 100 µM | [45] > 100 µM | [46] > 100 µM | [47] 85.5 µM | [48] > 100 µM | [49] > 100 µM | [50] > 100 µM | [51] > 100 µM | [52] > 100 µM | [53] 74.1 µM
active: [18] 0.463 µM
> 100 µM: [25]

CCC/C=C1\CCC(CN(C)C)C1=O (stereo unspecified)
inactive: [1] 15.7 µM | [2] 3.04 µM | [3] 7.35 µM | [5] 10.8 µM | [6] 24.1 µM | [7] 12.9 µM | [8] 18.8 µM | [10] 5.81 µM | [11] 1.82 µM | [12] 14.5 µM | [13] 2.49 µM | [14] 9.25 µM | [15] 3.1 µM | [16] 5.47 µM | [17] 5.57 µM | [54] 18.1 µM | [55] 16.7 µM | [18] 1.77 µM | [56] 2.13 µM | [19] 2.38 µM | [20] 28.1 µM | [23] 36.3 µM | [24] 8.11 µM | [26] 1.93 µM | [27] 15.8 µM | [28] 10.3 µM | [29] 6.12 µM | [30] 20 µM | [31] 5.41 µM | [32] 18.5 µM | [33] 2.81 µM | [34] 5.62 µM | [35] 4.67 µM | [36] 19 µM | [37] 6.52 µM | [38] 12.4 µM | [57] 23.4 µM | [39] 16.9 µM | [40] 9.91 µM | [41] 15.9 µM | [42] 4.6 µM | [43] 17.1 µM | [44] 6.52 µM | [45] 10.2 µM | [46] 15 µM | [47] 29.6 µM | [48] 15.6 µM | [49] 2.88 µM | [50] 11.9 µM | [51] 14.6 µM | [52] 36.7 µM | [53] 2.15 µM
active: [9] 0.333 µM | [21] 0.455 µM | [22] 1.09 µM
2.51 µM: [25]

CN(C(=O)c1ccccc1)c1ccc2c(c1)C(=O)c1ccccc1C2=O
> 100 µM: [25]
inactive: [1] > 100 µM | [2] > 100 µM | [3] > 100 µM | [4] > 100 µM | [6] > 100 µM | [7] > 100 µM | [8] > 100 µM | [9] > 100 µM | [10] > 100 µM | [11] > 100 µM | [12] > 100 µM | [13] > 100 µM | [15] > 100 µM | [16] > 100 µM | [17] > 100 µM | [18] > 100 µM | [56] > 100 µM | [20] > 100 µM | [22] > 100 µM | [23] > 100 µM | [24] > 100 µM | [26] > 100 µM | [27] > 100 µM | [28] > 100 µM | [29] > 100 µM | [30] > 100 µM | [31] > 100 µM | [32] > 100 µM | [34] > 100 µM | [35] > 100 µM | [36] > 100 µM | [37] > 100 µM | [38] > 100 µM | [39] > 100 µM | [40] > 100 µM | [41] > 100 µM | [42] > 100 µM | [43] > 100 µM | [44] > 100 µM | [45] > 100 µM | [46] > 100 µM | [48] > 100 µM | [49] > 100 µM | [50] > 100 µM | [51] > 100 µM | [53] > 100 µM
